Results from US9731001B2, “Three-dimensional cavities of dendritic cell immunoreceptor (DCIR), compounds binding thereto and therapeutic applications related to inhibition of human immunodeficiency virus type-1 (HIV-1)” (priority 2011, dated 2017).
Entries after “also recorded” stand apart in the source; their conditions may differ.

Assays:
Type in all cases: cell-based
DCIR = molecular target: T1, DCIR (Homo sapiens, UniProt Q9UMR7); assay: HIV-1 binding/entry assay on Raji-CD4-DCIR cells (cell-associated p24); conditions: 10 μM pre-treatment 10 min; NL4-3 60 min; p24 content
T1 construct: expressed in transfected cells; host or cells: Raji-CD4 (human B cell line stably expressing human CD4), retroviral transduction
T1 sequence (Q9UMR7 1-237): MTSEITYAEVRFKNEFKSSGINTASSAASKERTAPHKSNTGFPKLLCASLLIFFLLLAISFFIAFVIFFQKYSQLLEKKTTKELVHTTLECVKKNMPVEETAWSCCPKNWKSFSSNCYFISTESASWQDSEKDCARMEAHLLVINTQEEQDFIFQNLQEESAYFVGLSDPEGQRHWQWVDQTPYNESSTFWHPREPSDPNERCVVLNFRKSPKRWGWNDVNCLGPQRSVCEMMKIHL
Procedure: FIG. 4 is a bar graph showing that inhibitors decrease HIV-1 binding on DCIR. Raji-CD4-DCIR cells were treated with 10 μM of four site A inhibitors (A1, A2, A3 and A4) and three site B inhibitors (B1, B2 and B3) (or with vehicle (DMSO) only) for 10 min at 37° C. Thereafter, cells were pulsed with NL4-3 for 60 min. After three washes with PBS to remove unadsorbed virus, the abundance of cell-associated viruses was quantified by measuring p24 content. Data shown correspond to the means±SEM of three independent experiments performed with triplicate samples. The asterisk (*) denotes statistically significant data (*, P<0.05, ** P<0.01, *** P<0.001).
(§1) Where indicated, 1×10^6 parental Raji-CD4 cells (DCIR-negative), Raji-CD4-DCIR or Raji-DC-SIGN transfectants were pre-treated with the indicated amount of a chemical inhibitor for 10 min. Cells were then pulsed with NL4-3 (an equivalent of 100 ng of p24) for 60 min at 37° C. The virus-cell mixture was then washed three times with PBS to remove unbound virus and re-suspended in PBS containing 1% BSA. Binding/entry was then determined by the p24 content by ELISA as above. For the infection assay, Raji-CD4 and Raji-CD4-DCIR (1×10^6 cells) were exposed to NL4-3 viral stock (100 ng of p24) for 2 h at 37° C. After three washes with PBS to remove excess virus, cells were maintained in culture for up to 9 days. Cell-free culture supernatants were collected at the indicated time points and assayed for p24 content.

DC-SIGN = molecular target: T2, DC-SIGN (Homo sapiens, UniProt Q9NNX6); assay: HIV-1 binding to Raji-DC-SIGN cells (p24); conditions: NL4-3 60 min
T2 construct: expressed in transfected cells; host or cells: Raji cells stably transfected with a DC-SIGN plasmid
T2 sequence (Q9NNX6 1-404): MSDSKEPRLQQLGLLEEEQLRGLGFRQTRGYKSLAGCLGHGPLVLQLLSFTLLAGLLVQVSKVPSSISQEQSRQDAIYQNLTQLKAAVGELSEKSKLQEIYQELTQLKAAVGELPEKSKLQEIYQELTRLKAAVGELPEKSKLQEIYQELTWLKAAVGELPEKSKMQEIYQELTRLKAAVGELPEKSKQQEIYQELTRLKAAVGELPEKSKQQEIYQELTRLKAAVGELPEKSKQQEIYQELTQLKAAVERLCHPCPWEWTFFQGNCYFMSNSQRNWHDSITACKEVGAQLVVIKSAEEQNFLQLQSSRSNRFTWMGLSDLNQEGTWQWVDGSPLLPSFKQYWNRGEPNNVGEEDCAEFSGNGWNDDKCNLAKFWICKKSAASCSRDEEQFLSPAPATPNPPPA
Procedure: Raji-DC-SIGN cells were treated for 10 min at 37° C. with inhibitors A1 and A4 directed against the site A and B1 and B2 directed against the site B, or with DMSO. Afterwards, cells were pulsed with NL4-3 for 60 min, rinsed thrice with PBS were made to remove unadsorbed virus, and cell-associated viruses were quantified by measuring p24 content. Data shown correspond to the means±SEM of 3 independent experiments performed in triplicate.
as §1

HIV-1 (NL4-3/Balenv) [1] = assay: HIV-1 binding assay on iMDDCs (p24); conditions: IM-MDDCs, 10 μM pre-incubation 10 min, NL4-3balenv 60 min
Procedure: (§2) FIG. 7 is bar graphs showing that selected site A and site B inhibitors decrease HIV-1 binding and infection of IM-MDDCs. Upper panel: IM-MDDCs were treated with two chemical inhibitors directed against site A (A1 and A4) and two inhibitors directed against site B (B1 and B2) (or DMSO) for 10 min at 37° C. Next, cells were pulsed with NL4-3balenv for 60 min at 37° C. and rinsed extensively before measuring p24 content. Lower panel: In some experiments, similarly treated IM-MDDCs were pulsed with NL4-3balenv for 2 h at 37° C., rinsed extensively, and maintained in complete culture medium supplemented with GM-CSF and IL-4 for up to 9 days with medium replenishment every 3 days. Cell-free culture supernatants were quantified by measuring p24 content. Data shown correspond to the means±SEM of 3 independent experiments performed in triplicate. The asterisks denotes statistically significant data (*, P<0.05; **, P<0.01; ***, P<0.001).
(§3) For assessing binding/entry, iMDDCs (3×10^5 cells in a final volume of 300 μl) were pre-treated with 10 μM of different chemical inhibitors for 10 min and exposed to NL4-3/Balenv (30 ng of p24) for 60 min at 37° C. After three washes with PBS, cells were re-suspended in PBS containing 1% BSA. The p24 content was determined by ELISA, while susceptibility of iMDDCs to HIV-1 infection was assessed by initially exposing 3×10^5 cells to NL4-3/Balenv (30 ng) at 37° C. for 2 h. After three washes with PBS, cells were maintained in complete RPMI 1640 supplemented with GM-CSF and IL-4 in 96-well plates, in a final volume of 200 μl. Every 3 days and for a 9-day period, half of the conditioned medium was collected and kept at −20° C. until assayed. Virus production was estimated as above by measuring p24 levels by ELISA.

HIV-1 (NL4-3/Balenv) [2] = assay: HIV-1 infection assay on iMDDCs (p24 in supernatant); conditions: IM-MDDCs, NL4-3balenv 2 h, culture up to 9 days
Procedure: as §2, §3

HIV-1 (NL4-3) = assay: HIV-1 infection assay on Raji-CD4 and Raji-CD4-DCIR cells (p24 in supernatant); conditions: Raji-CD4 vs Raji-CD4-DCIR, NL4-3 2 h, culture 3 d
Procedure: FIG. 5 is a bar graph showing that specific inhibitors against the site A (A1, A4) and site B (B1, B2) decrease infectivity of Raji-CD4-DCIR. Raji-CD4 and Raji-CD4-DCIR were treated with the inhibitors selected following experiments described in FIG. 4, or DMSO. Cells were then exposed to NL4-3 for 2 h, rinsed and maintained in culture for 3d. Cell-free culture supernatants were collected and assayed for p24 content. Data shown correspond to the means±SEM from 3 independent experiments performed with triplicate samples. The asterisk (*) denotes statistically significant data (*, P<0.05, ** P<0.01, *** P<0.001).
as §1

| SMILES | HIV-1 attachment to Raji-CD4-DCIR cells (DCIR) | HIV-1 binding to DC-SIGN (DC-SIGN) | HIV-1 binding to DCs (HIV-1 (NL4-3/Balenv) [1]) | productive infection of DCs (HIV-1 (NL4-3/Balenv) [2]) | HIV-1 production (HIV-1 (NL4-3)) |
| --- | --- | --- | --- | --- | --- |
| Cc1ccc(/N=[N+](\[O-])c2ccc(C)cc2)cc1 [Compound B2, 1-methyl-4-[(4-methylphenyl)-NNO-azoxy]benzene] | statistically significant decrease | do not block HIV-1 attachment to DC-SIGN | decreased significantly | blocked productive infection | decreased HIV-1 production only in DCIR-expressing cells |
| O=C(/C=C/C=C/c1ccccc1)c1ccccc1 [Compound A1, 1,5-diphenyl-2,4-pentadien-1-one] | statistically significant decrease; also recorded: proved active against HIV-1 binding | do not block HIV-1 attachment to DC-SIGN | decreased significantly | blocked productive infection | decreased HIV-1 production only in DCIR-expressing cells |
| O=C(c1ccccc1)c1cc2ccccc2o1 [Compound B1, 1-benzofuran-2-yl(phenyl)methanone] | statistically significant decrease; also recorded: proved active against HIV-1 binding | do not block HIV-1 attachment to DC-SIGN | decreased significantly | blocked productive infection | decreased HIV-1 production only in DCIR-expressing cells |
